In patent US8871801B2, “Method of treating acquired perforating dermatosis with cantharidin” (priority 2011, dated 2014):

Experiments:
skin = conditions: general statement in the description; cited from earlier work
[1] = test system: acquired perforating dermatosis lesions; assay: Topical cantharidin treatment of a patient with acquired perforating dermatosis (case example); format: in vivo, human
From the text: A person presented a six-month history of pruritic, hyperpigmented papules with central, hyperkeratotic plugs of bilateral lower extremities (FIG. 1). The trunk, head, upper extremities, volar surfaces and mucous membranes were spared. Their past medical history was significant for chronic renal failure treated for the past four years with peritoneal dialysis, a 30-year history of insulin-dependent diabetes mellitus, hypercholesterolemia, hypertension, coronary artery bypass, hypothyroidism, and hyperparathyroidism. There was no family history of similar skin lesions. […] The clinical and histopathologic features supported the diagnosis of an acquired perforating disorder associated with renal disease.
Over the next six months, the patient was treated with intralesional triamcinolone at 10 mg/cc, topical clobetasol, diflorasone, tacrolimus, tazarotene and ammonium lactate. They declined narrowband UVB phototherapy. They were also given oral hydroxine and fexofenadine for their pruritus.
While a therapy of fexofenadine […] bid, ammonium lactate 12% cream bid, and tazarotene 0.1% cream qd were continued, cantharidin at 0.7 wt % (Canthacur® Pharmascience Inc., Montreal, Canada) was applied to lesions on the right medial calf. Cantharidin was applied for eight hours under occlusion. The vehicle was a solution containing cantharidin 0.7 wt % in acetone, castor oil, collodion, ethoxyethanol, ethyl cellulose, and polyoxyethylene octyl phenol. “bid” means twice per day. “qd” means once per day.
The film was then occluded using Blenderm® tape, which was kept on for 8 hours before it was washed off. Within 2 days, multiple bullae formed at the sites of cantharidin application (FIG. 2). There was vesicle formation at site of cantharidin application. The patient reported mild pain at these sites for the first 2 days. A week after application, a biopsy of the blistered lesion was taken. […] The blister roofs were then removed by paring them with a 15-blade at the edge of the lesion to find the blister plane and then lifting upwards. […] The lichenified papules and hyperkeratotic cores were no longer present and the leg was smooth.
Pruritus was resolved in the treated lesions. Cantharidin was subsequently applied under Tegaderm® dressing (3M Corp.) occlusion to multiple lesions of both legs. […] In a five-month follow up, the patient reported no pruritus on the treated lesions. Treated lesions were smooth. […] Cantharidin provides symptomatic relief but may not prevent the formation of new lesions.

Structure (SMILES): C[C@@]12C(=O)OC(=O)[C@]1(C)[C@H]1CC[C@@H]2O1 [cantharidin, Cantharidin]
- time to blister formation after topical treatment (skin): 24 to 48 h
- biopsy of the blistered lesion (histology) ([1]; a week after application of cantharidin 0.7 wt %): focal acantholysis and scattered necrotic keratinocytes
- pruritus in the treated lesions ([1]; after cantharidin 0.7 wt % treatment and debridement): resolved
- time to formation of multiple bullae at the sites of cantharidin application ([1]; cantharidin 0.7 wt % solution, lesions on right medial calf, 8 hours under occlusion (Blenderm tape)): ≤ 2 days
- pain reported by the patient at application sites ([1]; cantharidin 0.7 wt %, 8 hours under occlusion, first 2 days): mild pain
- effectiveness of treatment on multiple lesions of both legs ([1]; cantharidin applied under Tegaderm dressing occlusion): effective in most lesions
- appearance of treated lesions at follow up ([1]; five-month follow up): smooth
- formation of new lesions at follow up ([1]; five-month follow up): A few new lesions formed
- pruritus on the treated lesions at follow up ([1]; five-month follow up): no pruritus
